Test results as given in patent publication US20210205264A1, “USE OF DELTA-TOCOTRIENOL FOR TREATING CANCER” (H. LEE MOFFITT CANCER CENTER & RESEARCH INSTITUTE INC., priority 2018, published 2021).
Peptide text beside a SMILES is read from it. * marks the point of attachment. Cbz = O=C(OCc1ccccc1)*

Legend:
β-catenin = β-catenin immunofluorescence and Western blot in CCSCs; format: cell-based, human; conditions: MG132 25 μM, 3-methyladenine 10 mM, caspase 3 inhibitor 20 μM, calpain II inhibitor 25 μM
Excerpt: FIGS. 9A, 9B, 9C, and 9D show quantification of β-catenin in the nucleus and cytoplasm of CCSCs with confocal microscopy (FIGS. 9A & 9B) after treatment with vehicle, aspirin, d-T3, and aspirin+d-T3.
As noted above, stability of the β-catenin complex by inactivation of APC leads to stabilization and nuclear translocation of β-catenin and to transcriptional activation of β-catenin target genes such as c-Myc and cyclin D1. […] Furthermore, d-T3 inhibition of CCSCs is associated with the downregulation of β-catenin, c-Myc, cyclin D1, and survivin as measured by Western blot in CCSCs (FIG. 9D).

CCSCs [1] = assay: Annexin V FITC/PI flow cytometry apoptosis assay in CCSCs; format: cell-based, human; conditions: CCSCs
Protocol: (§1) FIGS. 10A, 10B, 10C, and 10D show induction of apoptosis measured by flow cytometry (FIG. 10A) and confocal microscopy (FIG. 10B) in CCSCs after treatment with vehicle, aspirin, d-T3, and aspirin+d-T3. Effect of BID inhibitor on apoptosis in CCSCs after treatment with aspirin or d-T3 (FIG. 10C). Induction oft-BID in CCSCs after treatment with vehicle, aspirin, d-T3, and aspirin+d-T3 (FIG. 10D).
(§2) d-T3 can induce selective killing of CCSCs through the BH3 interacting-domain death agonist (BID). […] It should be noted that these in vitro results are consistent with the in vivo observation of the selective induction of apoptosis in APC mutant colon crypt cells in the ApcMin/+ mice but not in the normal intestinal cells of the AOM rat CRC model or NOD/SCID mice. […] Although the proapoptotic activity of d-T3 is a consistent observation of d-T3 anticancer activity in all of the published reports, the mechanism by which d-T3 induces apoptosis is poorly understood. Apoptotic death is regulated by the death receptor (extrinsic) and mitochondrial (intrinsic) pathways. These 2 pathways crosstalk under certain conditions through caspase-8-mediated cleavage of BID, a BH3-only Bcl-2 family member. The activated and truncated BID (tBID) then engages the intrinsic pathway for efficient apoptosis induction. To obtain preliminary information regarding the mechanisms by which d-T3 induces apoptosis in CCSCs, the activation of BID was measured after 24-hour treatment with vehicle, aspirin (5 mM), d-T3 (50 μM), and aspirin combined with d-T3 in CCSCs by Western blotting.

hCAS [2] = biological target: T1, hCAS (Homo sapiens, UniProt P55060); assay: Competitive affinity-isolation of hCAS in MiaPaCa-2 cell lysate; format: binding; conditions: excess free compound
T1 construct: endogenous in cells; host or cells: MiaPaCa-2 human pancreatic cancer cells
T1 sequence (P55060 1-971): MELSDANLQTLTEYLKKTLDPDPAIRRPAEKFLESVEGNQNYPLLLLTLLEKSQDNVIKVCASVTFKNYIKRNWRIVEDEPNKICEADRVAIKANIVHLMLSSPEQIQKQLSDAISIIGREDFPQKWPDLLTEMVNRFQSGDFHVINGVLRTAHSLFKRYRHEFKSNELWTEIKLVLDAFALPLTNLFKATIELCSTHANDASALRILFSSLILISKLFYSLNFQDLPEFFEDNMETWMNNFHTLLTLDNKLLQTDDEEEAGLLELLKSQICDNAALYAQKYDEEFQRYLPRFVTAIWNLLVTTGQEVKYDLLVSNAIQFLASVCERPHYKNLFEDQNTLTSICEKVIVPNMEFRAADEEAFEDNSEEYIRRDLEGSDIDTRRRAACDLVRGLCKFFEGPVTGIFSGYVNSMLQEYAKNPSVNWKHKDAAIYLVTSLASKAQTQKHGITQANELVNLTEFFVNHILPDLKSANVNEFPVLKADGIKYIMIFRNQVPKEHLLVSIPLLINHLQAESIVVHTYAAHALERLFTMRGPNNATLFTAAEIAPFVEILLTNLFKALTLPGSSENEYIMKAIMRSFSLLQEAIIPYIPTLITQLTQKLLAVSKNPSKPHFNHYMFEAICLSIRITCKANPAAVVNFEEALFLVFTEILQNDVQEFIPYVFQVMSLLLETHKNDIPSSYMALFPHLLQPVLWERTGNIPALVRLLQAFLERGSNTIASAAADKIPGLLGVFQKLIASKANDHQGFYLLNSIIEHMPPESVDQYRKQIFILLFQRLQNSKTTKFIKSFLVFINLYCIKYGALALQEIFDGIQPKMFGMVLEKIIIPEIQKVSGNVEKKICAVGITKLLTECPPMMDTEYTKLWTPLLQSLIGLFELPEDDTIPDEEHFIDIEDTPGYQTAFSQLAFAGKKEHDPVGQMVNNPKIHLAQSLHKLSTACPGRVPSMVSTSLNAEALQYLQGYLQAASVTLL
Protocol: This experiment used a synthetic biotin-δ-tocotrienol conjugate (shown below to inhibit growth activity of cultured MiaPaca-2 human pancreatic cancer cells) to confirm affinity-isolation of hCAS. To confirm that δ-T3 binds to hCAS in intact cells, biotinylated δ-T3 (B-δ-T3) was prepared by chemically coupling the —OH group of δ-T3 to the —COOH of biotin using a PEG-iodoactamide linker (FIG. 18). […] Affinity-isolation of hCAS was inhibited in the presence of free δ-tocotrienol but not with free δ-tocopherol.

MiaPaCa-2 cell = MiaPaCa-2 cell viability at increasing concentrations; format: cell-based, human; conditions: increasing concentrations
ApcMin/+ mice = assay: Adenoma (intestinal polyp) formation in ApcMin/+ mice; format: in vivo
Excerpt: FIGS. 1A and 1B show the number of intestinal polyps (FIG. 1A) and H&E staining of polyps (FIG. 1B) in ApcMin/+ mice treated with vehicle (V), aspirin (Asp), d-T3, and combination of aspirin+d-T3. Black dots in FIG. 1B point out polyps in the intestine. Although substantial preclinical evidence exists regarding the preventive activity of d-T3 and g-T3 in various types of cancers, there is no report of d-T3 prevention of colon cancer despite evidence of activity in colon cell lines and xenograft models. […] Treatment with aspirin alone reduced adenoma formation by 38%, and treatment with d-T3 alone reduced adenoma formation by 44%, while treatment with the combination of aspirin and d-T3 reduced adenoma formation by 58%.

human CCSCs = assay: Orthotopic (cecum) model of luciferase expressing human CCSCs in NOD-SCID mice; format: in vivo
Protocol: FIGS. 8A, 8B, 8C, and 8D show growth of cecal tumor volume (FIGS. 8A & 8B) and liver metastasis score (FIGS. 8C & 8D) in orthotopic model of CCSCs after treatment with vehicle, aspirin, d-T3, and aspirin+d-T3.
In vivo model of human CCSC were developed by implanting the stably transfected luciferase expressing CCSCs in the cecum of NOD-SCID mice. In this model, tumor growth, metastasis, and survival are monitored twice weekly by IP injection of luciferin (150 mg/kg body weight) and imaged using the IVIS 200 Bioluminescence imaging system. […] These findings strongly indicate that d-T3 targets CCSCs and enhances the ability of aspirin to target these cells.

CCSCs [3] = assay: miRNA profiles in CCSCs; format: cell-based, human; conditions: 24-hour treatment; aspirin 5 mM, d-T3 10 μM
Excerpt: Given the results, and without intending to be bound by any theory, it appears that the induction of apoptosis can be one mechanism by which d-T3 prevents CRC and augments CRC prevention activity. BID knockout can diminish this effect. The biorepository as well as materials generated from studies can be used to explore other mechanisms of d-T3 action such as anti-inflammatory, mediation of the immune system, anti-angiogenesis, and alterations in metabolism. To this end, miRNA profiles were conducted that are altered with d-T3, aspirin, and d-T3 with aspirin treatment in CCSCs. To discover early miRNAs that are likely to influence activity, these cells were deliberately treated with doses of these agents at a duration when there were no phenotypic changes of apoptosis.

colon polyps = conditions: patients with stage I-III colon cancer following treatment; 27% without aspirin; cited from earlier work
BID = assay: Activation of BID (tBID) by Western blotting in CCSCs; format: cell-based, human; conditions: 24-hour treatment; aspirin 5 mM, d-T3 50 μM
Protocol: as §1
as §2, with “These 2 pathways crosstalk under certain conditions through caspase-8-mediated cleavage of BID, a BH3-only Bcl-2 family member. The activated and truncated BID (tBID) then engages the intrinsic pathway for efficient apoptosis induction.” left out

[4] = tested on: intestinal stem cells of ApcMin/+ mice; assay: Caspase 3 staining of intestinal crypts in ApcMin/+ mice; format: in vivo; conditions: small intestinal crypts of ApcMin/+ mice
Excerpt: Although substantial preclinical evidence exists regarding the preventive activity of d-T3 and g-T3 in various types of cancers, there is no report of d-T3 prevention of colon cancer despite evidence of activity in colon cell lines and xenograft models. […] Treatment with aspirin alone reduced adenoma formation by 38%, and treatment with d-T3 alone reduced adenoma formation by 44%, while treatment with the combination of aspirin and d-T3 reduced adenoma formation by 58%.

hCAS [5] = biological target: T1, hCAS; assay: Streptavidin bead capture of hCAS from treated MiaPaCa-2 cells; format: binding; conditions: MiaPaCa-2 cells treated 24 hours
Protocol: To confirm that δ-T3 binds to hCAS in intact cells, biotinylated δ-T3 (B-δ-T3) was prepared by chemically coupling the —OH group of δ-T3 to the —COOH of biotin using a PEG-iodoactamide linker (FIG. 18).
MiaPaCa-2 human pancreatic cancer cells were treated for 24 hours with biotin alone (B), B-δ-T3 or B-TOCOPH. The cells were then lysed, and the lysates incubated with streptavidin beads, and the captured proteins processed for Western blotting.

SMILES: Cn1cnc(N)c2ncnc1-2 [3-methyladenine, reference compound]
- effect on d-T3 induced degradation of β-catenin (β-catenin): inhibited

SMILES: COc1ccc(S(=O)(=O)NCCCC(=O)Nc2ccc(Sc3ccc(N)cc3)cc2)cc1 [BI-6C9]
- effect of BID inhibitor on induction of apoptosis by aspirin (CCSCs [1]): not
- effect of BID inhibitor on induction of apoptosis by d-T3 (CCSCs [1]): negates the induction of apoptosis

SMILES: CC(C)C[C@@H](C=O)NC(=O)[C@H](CC(C)C)NC(=O)[C@H](CC(C)C)NC(=O)OCc1ccccc1 [MG132, reference compound] (Cbz-Leu-Leu-Leu-aldehyde)
- effect on d-T3 induced degradation of β-catenin (β-catenin): inhibited

SMILES: Cc1cc(O)cc2c1O[C@](C)(CCC[C@H](C)CCC[C@H](C)CCCC(C)C)CC2 [TOCOPH, δ-Tocopherol, reference compound]
- affinity-isolation of hCAS / hCAS binding to biotin-T3 in presence of free competitor (hCAS [2]): does not
- affinity-isolation of hCAS / hCAS binding to biotin-T3 in presence of free competitor (hCAS [2]; listed as δ-tocopherol): not
- effect on cell viability (MiaPaCa-2 cell): least effect

SMILES: CC(=O)Oc1ccccc1C(=O)O [aspirin, reference compound]
- reduced adenoma formation (ApcMin/+ mice): 38%
- growth of human CRC stem cells (cecal tumor) (human CCSCs): inhibited
- metastases of human CRC stem cells (human CCSCs; liver metastasis): inhibited
- down-regulation of miRNAs compared with vehicle (number) (CCSCs [3]): 4 miRNAs
- up-regulation of miRNAs compared with vehicle (number) (CCSCs [3]): 2 miRNAs
- rate of polyp formation at 1-year colonoscopy (colon polyps): 17%
- activation of tBID (BID): did not
- apoptosis detected by caspase 3 staining [4]: minimal to no staining

SMILES: O=C(O)CCCC[C@@H]1SC[C@@H]2NC(=O)N[C@@H]21 [biotin]
- hCAS bound by streptavidin beads from lysates of treated cells (hCAS [5]): not
